How the values were obtained:
[1] = system: sGC; assay: Western blot of sGC expression in BPA; type: cell-based, bovine; details: organ culture with 100 μM ALA, Western analysis
Protocol: Rings from studies on contractile function were snap-frozen in liquid nitrogen, crushed and homogenized in lysis buffer (50 mM Tris-HCl, pH 8.0, 150 mM NaCl, 1 mM EDTA, 1% Triton X-100, 0.5% sodium deoxycholate, 0.1% sodium dodecyl sulfate, 1% of a protease inhibitor cocktail (Sigma) and 1% of a phosphatase inhibitor cocktail (Sigma). The protease inhibitor cocktail included 4-(2-aminoethyl)benzenesulfonyl floride hydrocholride, aprotinin, bestatin hydrochloride, N-(trans-epoxsuccinyl)-L-leucine-4-guanidinobutylamide, leupeptine hemisulfate, pepstatin and the phosphatase inhibitor cocktail included sodium orthovandate, sodium molybdate, sodium tartarate, and imidazole. Protein concentration was determined and 30 μg of protein samples were prepared in electrophoresis sample buffer containing 3% SDS and 3% β-mercaptoethanol and were separated using a 12% gel SDS-PAGE electrophoresis. Membranes were blocked for 1 h in TBST-5% milk and incubated overnight with phospho-VASP antibodies (diluted 1:1000). Membranes were exposed to a secondary horse radish peroxidase linked antibody and visualized with an ECL kit (Amersham). […] Membranes were subsequently washed, blocked and detected for total VASP. […] Expression of sGC was detected with β-sGC subunit antibodies (diluted 1:2000), employing anti-rabbit secondary antibodies, and a protocol where membranes were blocked for 2 h. […]

[2] = system: aorta; assay: Contraction to PDBu of aorta from rats treated with ALA in vivo; set-up: species or system rat; details: single dose 60 mg/kg ALA i.p., 24 hours after treatment
Protocol: The rats were pretreated with 60 mg/kg ALA or with a saline vehicle (i.p.). After 24 hours they were anesthetized with 50 mg/kg sodium pentobarbital and the aorta was removed for in vitro studies. Isolated aortic rings were studied for changes in protoporphyrin IX fluorescence and force under the same conditions similar to those used for bovine pulmonary arteries described above, except that 1 gram of passive force was used.

[3] = target: T1, sGC (Bos taurus, UniProt P16068); assay: sGC activity in BPA homogenates (cGMP by ELISA); type: biochemical, bovine; set-up: Guanylate cyclase activity of homogenates of BPA was measured by enzyme immunoassay; from tissue; host or cells: BPA (pulmonary artery rings, organ cultured) homogenate; details: organ culture with 100 μM ALA and/or 100 μM Fe
T1 sequence (P16068 1-619): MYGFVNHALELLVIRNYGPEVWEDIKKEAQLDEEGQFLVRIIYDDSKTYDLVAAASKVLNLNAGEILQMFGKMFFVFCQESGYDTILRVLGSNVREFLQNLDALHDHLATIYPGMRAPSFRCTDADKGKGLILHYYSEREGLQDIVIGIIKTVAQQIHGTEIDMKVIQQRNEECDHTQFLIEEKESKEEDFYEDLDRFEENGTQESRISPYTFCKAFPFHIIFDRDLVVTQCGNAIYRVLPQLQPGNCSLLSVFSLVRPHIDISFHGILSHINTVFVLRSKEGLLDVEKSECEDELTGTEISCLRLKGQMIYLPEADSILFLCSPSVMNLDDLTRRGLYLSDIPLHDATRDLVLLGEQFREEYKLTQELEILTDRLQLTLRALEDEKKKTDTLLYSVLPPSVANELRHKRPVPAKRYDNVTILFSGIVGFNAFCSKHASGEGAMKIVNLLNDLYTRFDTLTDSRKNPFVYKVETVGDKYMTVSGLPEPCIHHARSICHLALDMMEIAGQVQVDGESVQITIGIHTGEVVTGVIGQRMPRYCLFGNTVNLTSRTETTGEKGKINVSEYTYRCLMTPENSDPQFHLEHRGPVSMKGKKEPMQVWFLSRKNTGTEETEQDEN
T1 sequence (P19687 1-691 partner): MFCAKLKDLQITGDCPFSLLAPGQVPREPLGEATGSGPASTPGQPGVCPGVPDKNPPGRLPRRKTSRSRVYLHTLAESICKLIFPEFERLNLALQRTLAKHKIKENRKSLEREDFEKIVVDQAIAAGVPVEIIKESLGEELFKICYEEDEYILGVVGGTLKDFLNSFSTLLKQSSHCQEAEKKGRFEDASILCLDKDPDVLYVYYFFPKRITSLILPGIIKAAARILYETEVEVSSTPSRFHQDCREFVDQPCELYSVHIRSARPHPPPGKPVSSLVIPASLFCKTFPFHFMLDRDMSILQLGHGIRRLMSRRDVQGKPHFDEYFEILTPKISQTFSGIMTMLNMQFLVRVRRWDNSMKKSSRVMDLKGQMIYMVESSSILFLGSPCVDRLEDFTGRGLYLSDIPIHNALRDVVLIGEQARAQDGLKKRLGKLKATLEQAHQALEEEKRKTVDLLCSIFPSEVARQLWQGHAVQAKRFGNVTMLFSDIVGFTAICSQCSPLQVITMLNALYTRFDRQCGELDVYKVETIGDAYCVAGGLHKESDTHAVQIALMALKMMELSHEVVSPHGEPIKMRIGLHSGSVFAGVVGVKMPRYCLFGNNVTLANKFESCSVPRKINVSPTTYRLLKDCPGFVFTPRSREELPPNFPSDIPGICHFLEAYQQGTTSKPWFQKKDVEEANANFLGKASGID
Protocol: Guanylate cyclase activity of homogenates of BPA was measured by enzyme immunoassay of the amounts of cGMP generated. Briefly, BPA were pulverized in liquid nitrogen and homogenized in MOPS buffer 1:3 wt to buffer ratio at 5° C. Reaction mixture (0.2 ml final volume) contained 20 mM MOPS-KOH (pH 7.4), 0.1 mM GTP, 2 mM MgCl2, 0.3 mM of the phosphodiesterase inhibitor 3-Isobutyl-1-methylxanthine, a GTP-regenerating system consisting of 10 mM phosphocreatine and 150 U/ml creatine phosphokinase, and 0.1 ml of homogenate (11, 15), and test agents, as indicated. Assays of sGC activity were initiated by the addition of BPA homogenate. Incubations were conducted for 10 min at 37° C., and they were terminated by the addition of 0.1 ml of preheated 12 mM EDTA. This was followed by boiling the assay mixtures for 10 min and a subsequent addition of 5% trichloroacetic acid. The precipitate was removed by centrifugation and the supernatant was washed three times with water-saturated diethyl ether. Residual ether was removed by incubation at 70° C. for 5 minutes, prior to measurement of cGMP by ELISA (Cayman), as described in the manual supplied by manufacturer of the ELISA kit.

BPA homogenate sGC activity [3]: increase in BPA homogenate sGC activity
Structure (SMILES): NCC(=O)CCC(=O)O [ALA, δ-aminolevulinic acid]
levels of sGC relative to BPA organ cultured in the absence of ALA [1]: 71±19% | contraction of aorta to 10 μM PDBu [2]: decreased contraction

Source: patent US7989420B2, “Smooth muscle relaxation” (New York Medical College, priority 2006, dated 2011)
